In brackets after ≈: the same amount, converted by molar mass.
Tests used:
HER4 [1] = biological target: T1, HER4 (Homo sapiens, UniProt Q15303); parameters: method as in PMID 27132165; conditions: Figure S1; read-out: IC50 HER4 kinase; cited from earlier work
U87MG-TMZR cells = experiment: Colony formation assay; assay type: cell-based; conditions: 3, 10 and 30 μM
Protocol: (§1) U87MG, U251, U87MG-EGFRvIII, and U87MG-TMZR cells were trypsinized, and suspended in 6-well plates. After a period of 24 h, the cells were exposed to compound SMUZ106 with different concentrations (1, 3, and 10 μM), and the U87MG-TMZR cells were exposed to compound SMUZ106 with different concentrations (3, 10, and 30 μM) for 72 h. After 10–14 days of cultivation, the cells were stained with 0.4% trypan blue to visualize the formed colony and to count the number of colonies by Enzyme-Linked Immunospot Analyzer (CTL, Shaker Heights, OH, USA).

U87MG cells [2] = experiment: Colony formation assay; assay type: cell-based; conditions: 1, 3 and 10 μM
Protocol: as §1

U87MG-EGFRvIII cells [3] = experiment: Colony formation assay; assay type: cell-based; conditions: 1, 3 and 10 μM
Protocol: as §1

U251 cells [4] = experiment: Colony formation assay; assay type: cell-based; conditions: 1, 3 and 10 μM
Protocol: as §1

HER4 [5] = biological target: T1, HER4; experiment: HTRF KinEASE-TK single-point kinase assay; assay type: biochemical; conditions: read-out: inhibition rate HER4
Protocol: (§2) IC50 determinations for EGFR were performed with the Z’-LYTE technology platform (Life Technologies), according to the manufacturer’s instructions. The enzyme activity assays of compound SMUZ106 were performed at a single-point concentration (1 μM) against 76 kinases by using the HTRF KinEASE-TK assay according to the manufacturer’s instructions.

HER2 [6] = biological target: T2, HER2 (Homo sapiens, UniProt P04626); experiment: HTRF KinEASE-TK single-point kinase assay; assay type: biochemical; conditions: read-out: inhibition rate HER2
Protocol: as §2

EGFR [7] = biological target: T3, EGFR (Homo sapiens, UniProt P00533); experiment: HTRF KinEASE-TK single-point kinase assay; assay type: biochemical; conditions: read-out: inhibition rate EGFR
Protocol: as §2

HER2 [8] = biological target: T2, HER2; parameters: method as in PMID 27132165; conditions: Figure S1; read-out: IC50 HER2 kinase; cited from earlier work
phospho-EGFR [9] = experiment: Western blotting of EGFR signaling in U87MG cells; assay type: cell-based; conditions: 2.5, 5 and 10 μM, 48 h
Protocol: (§3) The GBM cells were exposed to compound SMUZ106 at different concentrations (2.5, 5, and 10 μM) for 48 h, and the total proteins were extracted from the cells using RIPA lysis buffer. The concentration of the obtained protein was determined using the BCA Protein Assay Kit (Thermo Fisher, Waltham, MA, USA). Equivalent protein samples (30 μg) were subjected to SDS-PAGE gels and transferred to NC membranes (PALL, Port Washington, NY, USA). Then, the membranes were blocked with 5% milk in TBST for 1 h at RT and probed with primary antibodies diluted overnight at 4 °C, followed by incubation with appropriate secondary antibodies for 1 h at RT. Finally, the protein bands were visualized and scanned using an imaging system (ProteinSimple, Santa Clara, CA, USA).

Solubility by HPLC = assay type: physicochemical
Protocol: The solubility of the compound SMUZ106 and its related salts in artificial gastric juice, artificial intestinal fluid, and physiological saline were determined by HPLC. […] Therefore, SMUZ106 hydrochloride was selected for the pharmacokinetic analysis.

phospho-EGFR [10] = experiment: Western blotting of EGFR signaling in U87MG-EGFRvIII cells; assay type: cell-based; conditions: 2.5, 5 and 10 μM, 48 h
Protocol: as §3

U87MG-EGFRvIII cells [11] = experiment: Apoptosis analysis by flow cytometry (Annexin V-FITC/PI); assay type: cell-based; conditions: 48 h
Protocol: (§4) U87MG-EGFRvIII cells were seeded into 6-well plates and treated with different concentrations of the compound SMUZ106 (2.5, 5, and 10 μM) for 48 h. Following the treatment, the cells were harvested, washed twice with cold PBS, and fixed overnight at 4 °C in 70% ethanol, then stained with PI solution to analyze the cell cycle distribution via flow cytometry. The results were determined using the ModFit LT 5.0 software. Each assay was performed in triplicates.
To perform the apoptosis analysis, after being washed with PBS, the cells were resuspended in 195 μL Annexin V-FITC binding solution, and then 5 µL of Annexin V-FITC was added, followed by 10 µL PI. Following incubation at room temperature for 20 min in the dark, cell apoptosis rates were detected by flow cytometry. The data were analyzed using FlowJo_V10 software.

EGFR [12] = biological target: T3, EGFR; parameters: method as in PMID 27132165; conditions: read-out: IC50 EGFR kinase; cited from earlier work
[13] = Pharmacokinetics study in mice; assay type: in vivo; conditions: male, Kunming, mouse, plasma
Protocol: A total of 72 male Kunming mice with an average weight of 20 g were purchased from Southern Medical University (Guangzhou, China) and divided into three groups, with […]. SMUZ106 was dissolved in 0.5% CMC-Na to prepare a suspension for oral administration (100 mg/kg). […] For the intravenous and oral administration, blood samples (0.5 mL) were collected from the mice’s orbital veins and placed into heparinized tubes at 0.25, 0.5, 1, 2, 6, 8, 12, and 24 h following administration. After centrifuging all the samples at 8000 r/min for 5 min, the supernatants were stored at −80 °C until analysis. Subsequently, the plasma samples were transferred to a clean 1.5 mL centrifuge tube and spiked with 100 μL of the internal standard solution (gefitinib, 1.0 μg/mL). Methyl alcohol was then added to the mixture, vortexed for 2 min, and centrifuged at 13,000 r/min for 30 min. […] A 10 µL aliquot of each sample was injected into the LC-MS/MS system for analysis. The pharmacokinetic parameters, such as half-life (t1/2), time of peak plasma concentration (Tmax), maximum plasma concentration (Cmax), mean residence time (MRT), area under the concentration–time curve (AUC), and bioavailability (F), were determined using DAS 2.0 software.

[14] = tested on: panel of 76 tyrosine kinases; experiment: Kinase selectivity screen (HTRF KinEASE-TK); assay type: biochemical; conditions: 1 μM, 76 kinases
Protocol: as §2

U87MG cells [15] = experiment: MTT cell viability assay; assay type: cell-based; conditions: Homo sapiens, U-87 MG, 72 h
Protocol: (§5) U87MG, U251, U87MG-EGFRvIII, and U87MG-TMZR cells were cultured in DMEM supplemented with 10% FBS and plated at low density in 96-well plates (2000 cells per well). Then, the cells were treated with different concentrations of gefitinib or compound SMUZ106 for a period of 72 h. MTT (5 mg/mL) was added to each well, and the cells were incubated for another 4 h at 37 °C. The optical density value at 570 nm was measured using a microplate reader (TECAN, Männedorf, Switzerland).

U87MG-EGFRvIII cells [16] = experiment: MTT cell viability assay; assay type: cell-based; conditions: 72 h
Protocol: as §5

U251 cells [17] = experiment: MTT cell viability assay; assay type: cell-based; conditions: Homo sapiens, U-251, 72 h
Protocol: as §5

[18] = tested on: U87MG-TMZR cells (TMZ-resistant U87MG cells); experiment: MTT cell viability assay; assay type: cell-based; conditions: Homo sapiens, U-87 MG, 72 h
Protocol: as §5

U87MG-EGFRvIII cells [19] = experiment: Cell cycle analysis by flow cytometry (PI); assay type: cell-based; conditions: 48 h; for cells in S phase: control 35.68%; for cells in G0/G1 phase: control 50.82%
Protocol: as §4

T2 sequence (P04626 23-1255): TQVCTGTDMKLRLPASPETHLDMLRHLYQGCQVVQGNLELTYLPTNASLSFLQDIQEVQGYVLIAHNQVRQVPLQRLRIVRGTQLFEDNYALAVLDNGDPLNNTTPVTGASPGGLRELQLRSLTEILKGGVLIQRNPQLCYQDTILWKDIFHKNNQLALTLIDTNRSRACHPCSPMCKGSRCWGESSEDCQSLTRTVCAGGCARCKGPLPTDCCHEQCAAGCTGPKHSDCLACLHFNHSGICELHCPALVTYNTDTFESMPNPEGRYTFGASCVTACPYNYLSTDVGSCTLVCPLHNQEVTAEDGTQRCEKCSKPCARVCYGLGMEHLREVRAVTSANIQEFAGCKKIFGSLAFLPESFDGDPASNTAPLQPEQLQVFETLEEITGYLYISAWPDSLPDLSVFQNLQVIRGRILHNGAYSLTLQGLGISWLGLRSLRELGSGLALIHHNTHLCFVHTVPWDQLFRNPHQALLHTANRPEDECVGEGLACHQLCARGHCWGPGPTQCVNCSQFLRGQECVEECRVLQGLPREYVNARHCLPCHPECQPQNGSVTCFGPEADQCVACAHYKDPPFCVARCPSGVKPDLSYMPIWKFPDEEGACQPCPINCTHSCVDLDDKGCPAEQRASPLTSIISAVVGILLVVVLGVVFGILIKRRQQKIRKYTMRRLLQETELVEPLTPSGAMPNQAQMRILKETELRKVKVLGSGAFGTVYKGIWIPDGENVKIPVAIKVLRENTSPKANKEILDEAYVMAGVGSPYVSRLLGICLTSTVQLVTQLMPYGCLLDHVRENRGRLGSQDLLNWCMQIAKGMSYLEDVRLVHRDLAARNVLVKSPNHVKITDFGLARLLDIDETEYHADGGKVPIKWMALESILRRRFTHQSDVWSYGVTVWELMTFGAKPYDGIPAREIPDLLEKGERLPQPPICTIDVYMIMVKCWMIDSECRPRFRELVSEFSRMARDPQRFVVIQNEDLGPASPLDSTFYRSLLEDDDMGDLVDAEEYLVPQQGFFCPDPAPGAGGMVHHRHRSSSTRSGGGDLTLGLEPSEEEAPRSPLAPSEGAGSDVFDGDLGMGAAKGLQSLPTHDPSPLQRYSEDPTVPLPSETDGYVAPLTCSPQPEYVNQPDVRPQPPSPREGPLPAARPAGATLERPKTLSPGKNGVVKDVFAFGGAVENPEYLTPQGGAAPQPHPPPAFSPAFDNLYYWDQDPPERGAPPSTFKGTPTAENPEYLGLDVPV
T3 sequence (P00533 25-1210): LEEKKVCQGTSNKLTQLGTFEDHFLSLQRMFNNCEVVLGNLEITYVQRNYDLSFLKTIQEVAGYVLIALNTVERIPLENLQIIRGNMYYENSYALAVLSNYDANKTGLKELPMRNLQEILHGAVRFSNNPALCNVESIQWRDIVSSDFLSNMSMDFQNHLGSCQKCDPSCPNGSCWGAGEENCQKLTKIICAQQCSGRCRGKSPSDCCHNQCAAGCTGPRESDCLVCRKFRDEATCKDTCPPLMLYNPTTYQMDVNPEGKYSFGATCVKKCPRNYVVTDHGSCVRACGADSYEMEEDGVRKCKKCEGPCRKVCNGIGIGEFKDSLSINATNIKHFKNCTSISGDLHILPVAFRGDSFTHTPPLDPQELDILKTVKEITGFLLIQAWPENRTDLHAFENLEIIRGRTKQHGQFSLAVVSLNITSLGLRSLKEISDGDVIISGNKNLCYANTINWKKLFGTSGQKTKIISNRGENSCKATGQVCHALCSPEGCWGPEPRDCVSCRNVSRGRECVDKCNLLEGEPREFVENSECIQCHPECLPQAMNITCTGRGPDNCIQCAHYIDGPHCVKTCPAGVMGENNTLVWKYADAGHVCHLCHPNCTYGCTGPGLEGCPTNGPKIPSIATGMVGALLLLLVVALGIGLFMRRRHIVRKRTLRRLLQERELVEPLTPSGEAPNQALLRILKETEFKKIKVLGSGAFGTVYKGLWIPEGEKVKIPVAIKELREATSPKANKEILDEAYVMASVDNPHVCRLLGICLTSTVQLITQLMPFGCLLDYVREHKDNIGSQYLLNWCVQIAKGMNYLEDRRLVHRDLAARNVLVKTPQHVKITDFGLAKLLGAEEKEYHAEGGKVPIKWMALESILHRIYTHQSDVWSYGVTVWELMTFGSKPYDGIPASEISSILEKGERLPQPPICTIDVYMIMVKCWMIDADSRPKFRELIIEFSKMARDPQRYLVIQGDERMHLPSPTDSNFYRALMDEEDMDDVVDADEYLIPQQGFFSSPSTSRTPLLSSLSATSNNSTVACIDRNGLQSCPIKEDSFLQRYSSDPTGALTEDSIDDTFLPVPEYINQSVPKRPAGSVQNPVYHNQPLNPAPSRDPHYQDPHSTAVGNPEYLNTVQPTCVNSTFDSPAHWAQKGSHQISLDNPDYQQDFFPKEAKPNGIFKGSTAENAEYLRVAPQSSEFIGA
T1 sequence (Q15303 26-1308): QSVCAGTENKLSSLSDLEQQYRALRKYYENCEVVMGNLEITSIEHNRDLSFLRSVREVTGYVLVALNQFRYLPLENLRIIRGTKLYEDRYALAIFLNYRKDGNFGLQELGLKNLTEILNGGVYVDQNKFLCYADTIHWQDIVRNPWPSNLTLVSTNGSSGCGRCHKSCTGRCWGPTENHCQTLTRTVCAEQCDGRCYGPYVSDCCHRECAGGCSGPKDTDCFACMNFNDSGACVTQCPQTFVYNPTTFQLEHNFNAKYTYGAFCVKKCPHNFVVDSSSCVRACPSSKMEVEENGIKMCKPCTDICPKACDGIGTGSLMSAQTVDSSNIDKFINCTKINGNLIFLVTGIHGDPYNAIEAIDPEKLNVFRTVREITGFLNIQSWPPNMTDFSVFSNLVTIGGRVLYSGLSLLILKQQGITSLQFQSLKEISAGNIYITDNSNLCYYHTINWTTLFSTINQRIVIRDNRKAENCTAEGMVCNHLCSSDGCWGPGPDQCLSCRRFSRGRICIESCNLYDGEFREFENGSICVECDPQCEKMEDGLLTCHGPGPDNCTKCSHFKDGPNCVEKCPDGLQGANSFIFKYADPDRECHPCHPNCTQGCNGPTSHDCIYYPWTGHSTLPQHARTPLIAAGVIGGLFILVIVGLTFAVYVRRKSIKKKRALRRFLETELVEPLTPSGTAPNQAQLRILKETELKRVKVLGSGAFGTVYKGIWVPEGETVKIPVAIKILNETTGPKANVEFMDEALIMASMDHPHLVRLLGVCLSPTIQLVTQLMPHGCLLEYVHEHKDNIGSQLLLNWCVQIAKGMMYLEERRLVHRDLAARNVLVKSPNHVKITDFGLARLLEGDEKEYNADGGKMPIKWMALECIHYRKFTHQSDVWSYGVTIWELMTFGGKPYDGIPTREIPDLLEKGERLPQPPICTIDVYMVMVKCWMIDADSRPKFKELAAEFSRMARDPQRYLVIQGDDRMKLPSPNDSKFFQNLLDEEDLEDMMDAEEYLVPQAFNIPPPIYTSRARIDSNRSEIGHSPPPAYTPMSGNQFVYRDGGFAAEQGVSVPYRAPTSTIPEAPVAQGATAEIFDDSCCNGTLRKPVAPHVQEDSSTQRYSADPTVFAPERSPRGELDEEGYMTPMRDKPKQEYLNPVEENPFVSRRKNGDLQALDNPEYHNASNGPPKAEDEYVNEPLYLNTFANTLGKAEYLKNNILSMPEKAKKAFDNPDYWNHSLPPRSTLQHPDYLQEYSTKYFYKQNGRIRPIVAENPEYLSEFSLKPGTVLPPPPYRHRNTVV

**Q.** For `c1cnc2ccc(Nc3ncnc4ccc(-c5cnn(C6CCNCC6)c5)cc34)cc2c1` [SMUZ106, 6-(1-(piperidin-4-yl)-1H-pyrazol-4-yl)-N-(quinolin-6-yl)quinazolin-4-amine], which IC50 (HER4 [1]) is on record?
**A.** 0.93 µM

**Q.** And the clone formation (U87MG-TMZR cells)?
**A.** could inhibit the proliferation of TMZ-resistant U87MG cells

**Q.** And the “clonogenicity (number of colonies)” value (U87MG cells [2])?
**A.** significantly decreased the clonogenicity

**Q.** What about the “clonogenicity (number of colonies)” value (U87MG-EGFRvIII cells [3]) of the same compound?
**A.** significantly decreased the clonogenicity

**Q.** What about the “clonogenicity (number of colonies)” value (U251 cells [4]) of the same compound?
**A.** significantly decreased the clonogenicity

**Q.** And the inhibition at 1 µM (HER4 [5])?
**A.** 87.3%

**Q.** What about the inhibition at 1 µM (HER2 [6]) of the same compound?
**A.** 75.4%

**Q.** What about the inhibition at 1 µM (EGFR [7]) of the same compound?
**A.** 98.7%

**Q.** And the IC50 (HER2 [8])?
**A.** 0.874 µM

**Q.** What about the “phosphorylation levels of AKT and Erk1/2” value (phospho-EGFR [9]) of the same compound?
**A.** did not significantly downregulate

**Q.** And the “protein expression level of total EGFR” value (phospho-EGFR [9])?
**A.** remained unchanged

**Q.** And the “protein level of phospho-EGFR” value (phospho-EGFR [9])?
**A.** decreased dose dependently

**Q.** And the solubility (Solubility by HPLC; artificial gastric juice, simulated gastric fluid)?
**A.** 16.8 mg/mL (≈ 39.8 mM)

**Q.** What about the solubility (Solubility by HPLC; artificial intestinal juice, fassgf or other biorelevant) of the same compound?
**A.** 0.22 mg/mL (≈ 0.522 mM)

**Q.** What about the solubility (Solubility by HPLC; medium not named in the sentence (values match artificial gastric juice of Table S2)) of the same compound?
**A.** 16.8 mg/mL (≈ 39.8 mM)

**Q.** What about the solubility (Solubility by HPLC; normal saline, saline or isotonic) of the same compound?
**A.** 3.69 mg/mL (≈ 8.75 mM)

**Q.** And the “phosphorylation levels of AKT and Erk1/2” value (phospho-EGFR [10])?
**A.** did not significantly downregulate

**Q.** And the “protein expression level of total EGFR” value (phospho-EGFR [10])?
**A.** remained unchanged

**Q.** What about the “protein level of phospho-EGFR” value (phospho-EGFR [10]) of the same compound?
**A.** decreased dose dependently

**Q.** What about the “percentage of apoptotic cells” value (U87MG-EGFRvIII cells [11]; 2.5 μM) of the same compound?
**A.** 2.34%

**Q.** What about the “percentage of apoptotic cells” value (U87MG-EGFRvIII cells [11]; 5 μM) of the same compound?
**A.** 2.70%

**Q.** And the “percentage of apoptotic cells” value (U87MG-EGFRvIII cells [11]; 10 μM)?
**A.** 3.02%

**Q.** And the IC50 (EGFR [12])?
**A.** 0.0441 µM

**Q.** And the bioavailability ([13]; oral, p.o. 100 mg/kg vs i.v. 25 mg/kg, read-out: F (absolute bioavailability))?
**A.** 29%

**Q.** And the AUC(0-inf) ([13]; po, p.o. 100 mg/kg)?
**A.** 7510 ± 1060 ng·h/mL

**Q.** And the Cmax ([13]; po, p.o. 100 mg/kg)?
**A.** 1190 ± 464 ng/mL

**Q.** And the Tmax ([13]; po, p.o. 100 mg/kg)?
**A.** 6 h

**Q.** What about the half-life ([13]; po, p.o. 100 mg/kg) of the same compound?
**A.** 0.87 ± 0.01 h

**Q.** What about the MRT last ([13]; po, p.o. 100 mg/kg, read-out: MRT0→t) of the same compound?
**A.** 6.32 ± 0.22 h

**Q.** And the kinase selectivity [14]?
**A.** excellent selectivity to EGFR

**Q.** What about the IC50 (U87MG cells [15]) of the same compound?
**A.** 7.43 µM

**Q.** What about the IC50 (U87MG-EGFRvIII cells [16]) of the same compound?
**A.** 4.36 µM

**Q.** And the IC50 (U251 cells [17])?
**A.** 10.3 µM

**Q.** What about the IC50 [18] of the same compound?
**A.** 7.86 µM

**Q.** And the “cells in S phase” value (U87MG-EGFRvIII cells [19]; 2.5 μM)?
**A.** 27.08%

**Q.** What about the “cells in G0/G1 phase” value (U87MG-EGFRvIII cells [19]; 2.5 μM) of the same compound?
**A.** 54.44%

**Q.** What about the “cells in S phase” value (U87MG-EGFRvIII cells [19]; 5 μM) of the same compound?
**A.** 24.01%

**Q.** What about the “cells in G0/G1 phase” value (U87MG-EGFRvIII cells [19]; 5 μM) of the same compound?
**A.** 58.17%

**Q.** And the “cells in S phase” value (U87MG-EGFRvIII cells [19]; 10 μM)?
**A.** 20.78%

**Q.** And the “cells in G0/G1 phase” value (U87MG-EGFRvIII cells [19]; 10 μM)?
**A.** 62.50%

**Q.** Which results are given for `Cn1nnc2c(C(N)=O)ncn2c1=O` [TMZ, temozolomide, reference compound]?
**A.** IC50 (U87MG cells [15]): 501 µM; IC50 [18]: 2040 µM

Reference: article PMC10220892 (Pharmaceutics, 2023)
